Assay [1] deals with FGFR alteration (fusions, amplifications, or point mutations). The following applies: cited from earlier work.
In a further assay the test system is Kato III cells. The experiment in a line: cells. Particulars: 72 h. Here is the method: Kato III cells were treated with bispecific compound 6 or BGJ398 at the indicated concentrations for 72 h. Cell viability was determined using Cell-Titer Glo (Promega™) according to the manufacturer's instructions. IC50 values (defined as the concentration of compound needed to reduce cell viability to 50% of the vehicle DMSO control) were estimated by using GraphPad Prism 7.0 (GraphPad Prism®).
Cell viability was determined using Cell-Titer Glo (Promega™) according to the manufacturer's instructions. IC50 values were estimated by using GraphPad Prism 7.0 (GraphPad Prism®).
Kato III cells were treated with bispecific compound 6, bispecific compound 7 or BGJ398 at the indicated concentrations for 72 h. Cell viability was determined using Cell-Titer Glo (Promega™), according to the manufacturer's instructions. IC50 values (defined as the concentration of compound needed to reduce cell viability to 50% of the vehicle DMSO control) were estimated by using GraphPad Prism 7.0 (GraphPad Prism®).

The subject of the next assay is FGFR2. The experiment in a line: Rescue of degrader-induced FGFR2 degradation by pretreatment, immunoblot in Kato III cells. Format: cell-based. The following applies: for rescue of FGFR2 degradation induced by bispecific compound 6: pretreated 2 h (10 μM BGJ398, 10 μM control-1, 0.5 M Bortezomib, 1 μM MLN4924), then 0.1 M bispecific compound 6 for 4 h; for rescue of FGFR2 degradation induced by bispecific compound 20: pretreated 2 h (10 μM FIIN2, 10 M control-1, 0.5 M Bortezomib, 1 μM MLN4924), then 1 M bispecific compound 20 for 4 h. Here is the method:
Kato III cells were pretreated with 10 μM BGJ398 (the parental compound and known FGFR1/2/3 inhibitor; available from, e.g., MedChemExpress®, Cat. No. HY-13311, Monmouth Junction, N.J.), 10 μM control-1 (VHL ligand), 0.5 M Bortezomib (a proteasome inhibitor; available from, e.g., Millipore Sigma®, Cat. No. 179324-69-7, Burlington, Mass.), and 1 μM MLN4924 (a neddylation inhibitor; available from, e.g., MedChemExpress®, Cat. No. HY-70062, Monmouth Junction, N.J.), for 2 h, and then treated with 0.1 M bispecific compound 6 for 4 h. Cells were lysed and immunoblotted as described above with antibodies to FGFR2 and β-Actin.
Kato III cells were pretreated with 10 μM FIIN2 (the parental compound and known FGFR1/2/3/4 inhibitor; available from, e.g., Selleckchem, Cat. No. S7714, Houston, Tex.), 10 M control-1 (VHL ligand), 0.5 M Bortezomib (a proteasome inhibitor; available from, e.g., Millipore Sigma, Cat. No. 179324-69-7, Burlington, Mass.), and 1 μM MLN4924 (a neddylation inhibitor; available from, e.g., MedChemExpress, Cat. No. HY-70062, Monmouth Junction, N.J.), for 2 h, and then treated with 1 M bispecific compound 20 for 4 h. Cells were lysed and immunoblotted as described above with antibodies to FGFR2 and β-Actin.
A general note: A western blot detects proteins with antibodies after separation by electrophoresis.

The target of a further assay is T1, CDK9 (Homo sapiens, UniProt P50750).
T1 construct: endogenous in cells; host or cells: Kato III; CCLP1; JHH7
The experiment in a line: CDK9 degradation by immunoblot (positive control). The following applies: 16 hours. Type of assay: cell-based. Here is the method:
Kato III cells were treated with 0, 0.1, 1, or 10 M of bispecific compound 6 or 0.5 M THAL-SNS-032 (a known CDK9 degrader and positive control for CDK9 degradation; available from, e.g., MedChemExpress®, Cat. No. HY-10008, Monmouth Junction, N.J.) for 16 hours. Cells were then lysed in RIPA buffer (Millipore Sigma®) containing protease/phosphatase inhibitor cocktail (Roche®). The protein concentrations were measured by bicinchoninic acid assay (BCA) analysis (Pierce™). Equal amounts of protein were resolved by 4-12% Tris-Base gels (Invitrogen™), and then transferred to the Immuno-Blot PVDF membrane (Bio-Rad®), and immunoblotted with primary antibodies against FGFR2 (cell signaling), CDK9 (cell signaling) and […] (cell signaling), and then immunoblotted with IRDye®800-labeled goat anti-rabbit IgG and IRDye®800-labeled goat anti-mouse IgG (LI-COR®) secondary antibodies. The membranes were detected on Odyssey CLx system.
CCLP1 cells were treated with 0, 0.1, 1, or 10 M of bispecific compound 6 or 0.5 μM THAL-SNS-032 for 16 hours, and then lysed and immunoblotted with antibodies to FGFR1 (cell signaling), CDK9, and β-Actin.
JHH7 cells were treated with 0, 0.1, 1, or 10 M of bispecific compound 6 or 0.5 M THAL-SNS-032 for 16 hours, and then lysed and immunoblotted with antibodies to FGFR3 (cell signaling), FGFR4 (cell signaling), CDK9, and β-Actin.

The mark [2] stands for this setting: patients with advanced refractory ICC with an FGFR alteration.

Where two headings read alike, the source gives them in different places.

Consider six compounds from US20220175722A1, “DEGRADERS OF FIBROBLAST GROWTH FACTOR RECEPTOR 2 (FGFR2)” (DANA-FARBER CANCER INSTITUTE, INC., priority 2019, published 2022).

T1 sequence (P50750 whole entry): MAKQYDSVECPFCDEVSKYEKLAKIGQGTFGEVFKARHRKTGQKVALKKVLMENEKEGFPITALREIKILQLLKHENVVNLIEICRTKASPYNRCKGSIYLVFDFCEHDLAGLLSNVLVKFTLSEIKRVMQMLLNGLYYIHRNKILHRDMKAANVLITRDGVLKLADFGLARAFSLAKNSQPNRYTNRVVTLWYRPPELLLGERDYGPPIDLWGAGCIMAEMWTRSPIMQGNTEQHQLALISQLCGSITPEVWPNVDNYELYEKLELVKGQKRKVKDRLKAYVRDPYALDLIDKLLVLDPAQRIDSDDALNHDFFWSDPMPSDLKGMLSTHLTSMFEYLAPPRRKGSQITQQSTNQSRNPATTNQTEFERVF
T1 sequence (O60563 whole entry partner): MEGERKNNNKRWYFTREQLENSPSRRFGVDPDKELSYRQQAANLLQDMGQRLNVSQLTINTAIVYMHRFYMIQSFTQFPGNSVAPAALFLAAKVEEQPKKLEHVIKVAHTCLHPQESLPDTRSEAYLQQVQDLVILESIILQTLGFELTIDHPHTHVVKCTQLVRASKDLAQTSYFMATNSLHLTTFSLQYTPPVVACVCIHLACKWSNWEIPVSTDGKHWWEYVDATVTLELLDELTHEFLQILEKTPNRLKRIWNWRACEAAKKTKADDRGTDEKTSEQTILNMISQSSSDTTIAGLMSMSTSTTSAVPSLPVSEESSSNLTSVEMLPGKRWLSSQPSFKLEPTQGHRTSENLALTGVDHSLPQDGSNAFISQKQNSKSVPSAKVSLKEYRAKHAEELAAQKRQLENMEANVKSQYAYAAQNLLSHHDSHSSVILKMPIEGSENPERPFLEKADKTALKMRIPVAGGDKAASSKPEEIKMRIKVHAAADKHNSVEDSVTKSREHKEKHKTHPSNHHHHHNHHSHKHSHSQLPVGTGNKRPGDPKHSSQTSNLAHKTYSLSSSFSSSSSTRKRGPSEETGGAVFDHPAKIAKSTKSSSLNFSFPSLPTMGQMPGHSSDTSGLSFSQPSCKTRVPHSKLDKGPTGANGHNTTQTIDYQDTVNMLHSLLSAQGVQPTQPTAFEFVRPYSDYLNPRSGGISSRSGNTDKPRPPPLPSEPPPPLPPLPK

`CCN1CCN(c2ccc(Nc3cc(N(C)C(=O)Nc4c(Cl)c(OC)cc(OC)c4Cl)ncn3)cc2)CC1` [BGJ398]: in assay [1] (FGFR2 fusions only), the “disease control rate (DCR; partial responses+stable disease)” value is on record as 83.3% and the “overall response rate (ORR)” value was 18.8%. Also, in assay [1] (setting [2]), the “Median progression free survival” value is listed as 5,8 months, the “disease control rate (DCR; partial responses+stable disease)” value is reported as 75.4% and the “overall response rate (ORR)” value is 14.8%. Besides, in the assay on Kato III cells (Homo sapiens, KATO III, read-out: IC50 (concentration needed to reduce cell viability to 50% of the vehicle DMSO control)), the IC50 is ~1 nM. Moreover, the anti-proliferation effect entry with Kato III cells (Kato III cells) is given as “good anti-proliferation effect”. In addition, in the assay with FGFR2, the “rescue of FGFR2 degradation induced by bispecific compound 6” value (from here on “rescue … by bispecific compound 6”) is given as “rescued the FGFR2 degradation”.

On to `CC(C)C[C@H](NC(=O)[C@H](Cc1ccccc1)NC(=O)c1cnccn1)B(O)O` [Bortezomib], for which, in the assay with FGFR2, the “rescue … by bispecific compound 6” value is listed as “rescued the FGFR2 degradation” and the “rescue of FGFR2 degradation induced by bispecific compound 20” value (“rescue … by bispecific compound 20” below) is “rescued the FGFR2 degradation”.

As for `C=CC(=O)Nc1ccc(CN2C(=O)N(c3cc(OC)cc(OC)c3)Cc3cnc(Nc4ccc(N5CCN(C)CC5)cc4)nc32)cc1` [FIIN2], the “rescue … by bispecific compound 20” value in the assay with FGFR2 is “rescued the FGFR2 degradation”.

In the case of `NS(=O)(=O)OC[C@@H]1C[C@@H](n2ccc3c(N[C@H]4CCc5ccccc54)ncnc32)C[C@@H]1O` [MLN4924], in the assay with FGFR2, the “rescue … by bispecific compound 6” value is given as “rescued the FGFR2 degradation” and the “rescue … by bispecific compound 20” value is given as “rescued the FGFR2 degradation”.

On to `CC(C)(C)c1cnc(CSc2cnc(NC(=O)C3CCN(CC(=O)NCCOCCOCCOCCNc4cccc5c4C(=O)N(C4CCC(=O)NC4=O)C5=O)CC3)s2)o1` (stereo not drawn) [THAL-SNS-032], for which the CDK9 degradation entry is given as “induced CDK9 degradation” on CDK9 (CCLP1 cells, 0.5 μM); “induces CDK9 degradation” at CDK9 (JHH7 cells, 0.5 µM); “induced CDK9 degradation” at CDK9 (Kato III cells, 0.5 µM).

Take `CC(=O)N[C@H](C(=O)N1C[C@H](O)C[C@H]1C(=O)N[C@@H](C)c1ccc(-c2scnc2C)cc1)C(C)(C)C` [control-1]: in the assay on FGFR2, the “rescue … by bispecific compound 6” value is recorded as “rescued the FGFR2 degradation” and the “rescue … by bispecific compound 20” value is reported as “rescued the FGFR2 degradation”.
